Reference: PubChem BioAssay AID624166 (Johns Hopkins Ion Channel Center, 2012)
Calls of active or inactive are those of the source.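 The calls were made as follows: active = raises the calcium signal in non-induced parental cells at some tested dose and a dose-response curve can be fitted; inactive = no activation at any dose, or no dose-response curve.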

Test system: not listed separately
Test: carbachol calcium response in non-induced cells, SAR follow-up, counter-screen for RGS4 potentiator project, cell-based, HEK293 M3R, non-induced RGS4, SAR compounds (AID 624166)
Details: HEK293 M3R non-induced RGS4, carbachol calcium Fluo4; at 33.3 µM (top of the series)

| Structure (SMILES) | calcium response, lower = inhibition |
| --- | --- |
| O=C(Nc1ccccc1N1CCN(C(=O)c2ccccc2)CC1)c1ccc(Cl)o1 | 17.2 (inactive) |
| O=C(CNc1ccccc1)c1ccc([N+](=O)[O-])cc1 | 24.6 (inactive) |
| O=C(CNC1CCCCCC1)Nc1ccc(S(=O)(=O)NC2CC2)cc1 | 19.6 (inactive) |
| Cc1ccc(NC(=O)c2cc(-c3cccs3)nc3ccccc23)nc1 | 52.7 (inactive) |

Test system: HEK293 M3R non-induced RGS4, carbachol calcium Fluo4
Test: as above
Details: not given

| Structure (SMILES) | EC50 [µM] |
| --- | --- |
| Cc1ccc(S(=O)(=O)c2ccc(Oc3cccc(C)c3)cc2)cc1 | 2.7 |
| CC(C)Cn1c(-c2ccc(F)cc2)n[nH]c1=S | 4.11 |
| CCN1CCCC1CNCc1ccccc1OCc1ccc(F)cc1 (stereo not drawn) | 10.8 |
| CN(Cc1ccc(F)cc1)C(=O)C(c1ccccc1)c1ccccc1 | 3.18 |
| CCn1cc(CN2CCC(n3nccc3NC(=O)c3ccc(OC)cc3)CC2)cn1 | 9.27 |
| S=c1[nH]nc(-c2ccc(Cl)cc2)n1CC1CCCO1 (stereo not drawn) | 7.62 |
| COC(=O)c1cccc(Nc2nc(-c3cccnc3)nc3ccccc23)c1 | 5.82 |
| COC(=O)C1CCCN(C(=O)c2cc(-c3ccc(C)cc3)nc3ccccc23)C1 (stereo not drawn) | 16.1 |
| CCCCn1c(-c2csc(CCC)c2)n[nH]c1=S | 3.34 |
